We go through 16 compounds from ChEMBL document CHEMBL3046154, “Synthesis and biological activity of 2-(4,5-dihydroisoxazol-5-yl)-1,3,4-oxadiazoles” (2009).

What all share (format): functional
Holding throughout (design): concentration or dose not given beside the values

For one experiment, the system named is Spodoptera exigua. Description: Insecticidal activity against Spodoptera exigua assessed as mortality.
The subject of the next experiment is Zymoseptoria tritici. Description: Antifungal activity against Zymoseptoria tritici assessed as disease control.
The test system of the next experiment is Pyricularia oryzae. Description: Antifungal activity against Magnaporthe oryzae assessed as disease control.

Each structure is given as a SMILES string.

With `CC1(c2nnc(-c3cccc(Cl)c3)o2)CC(c2ccc(F)cc2)=NO1` (stereo not drawn), the results for the Activity in the experiment on Spodoptera exigua, in the experiment on Zymoseptoria tritici and with Pyricularia oryzae were 0%, 10% and 50%, respectively.

Regarding `CC1(c2nnc(-c3ccc(Cl)cc3)o2)CC(c2ccc([N+](=O)[O-])cc2)=NO1` (stereo not drawn), the Activity in the experiment on Spodoptera exigua came out at 0%; in the experiment with Zymoseptoria tritici, 40%; in the experiment on Pyricularia oryzae, 30%.

Regarding `CC1(c2nnc(-c3cccc(Cl)c3)o2)CC(c2ccccc2)=NO1` (stereo not drawn), the Activity was found to be 17% in the experiment on Spodoptera exigua, 10% with Zymoseptoria tritici and 40% with Pyricularia oryzae.

As to `CC1(c2nnc(-c3cccc(Cl)c3)o2)CC(c2ccc(Cl)cc2)=NO1` (stereo not drawn), the values for the Activity with Spodoptera exigua, in the experiment with Zymoseptoria tritici and with Pyricularia oryzae were 50%, 0% and 40%, respectively.

On to `CC1(c2nnc(Cc3ccccc3)o2)CC(c2ccc([N+](=O)[O-])cc2)=NO1` (stereo not drawn), for which the Activity is reported as 17% in the experiment with Spodoptera exigua, 30% with Zymoseptoria tritici and 30% in the experiment on Pyricularia oryzae.

`CC1(c2nnc(-c3ccc(Cl)cc3)o2)CC(c2ccncc2)=NO1` (stereo not drawn): the Activity in the experiment on Spodoptera exigua was 0%; in the experiment on Zymoseptoria tritici it was 70%; with Pyricularia oryzae it was 30%.

For `Clc1ccc(C2=NOC(c3nnc(-c4ccccc4)o3)C2)cc1` (stereo not drawn), the Activity in the experiment with Spodoptera exigua is given as 17%; in the experiment with Zymoseptoria tritici it was 0%; in the experiment on Pyricularia oryzae, 0%.

Take `CC1(c2nnc(Cc3ccccc3)o2)CC(c2c(Cl)cccc2Cl)=NO1` (stereo not drawn): the Activity in the experiment on Spodoptera exigua, in the experiment on Zymoseptoria tritici and in the experiment on Pyricularia oryzae was 0% in each case.

Turning to `c1ccc(-c2nnc(C3CC(c4ccncc4)=NO3)o2)cc1` (stereo not drawn), the Activity in the experiment on Spodoptera exigua, in the experiment with Zymoseptoria tritici and in the experiment on Pyricularia oryzae was 0% throughout.

Consider `CC1(c2nnc(-c3ccc(Cl)cc3)o2)CC(c2cccc(Cl)c2)=NO1` (stereo not drawn), for which the Activity in the experiment on Spodoptera exigua is 50%; in the experiment on Zymoseptoria tritici, 10%; in the experiment on Pyricularia oryzae, 50%.

In the case of `CC1(c2nnc(-c3cccc(Cl)c3)o2)CC(c2cccc(Cl)c2)=NO1` (stereo not drawn), the figures for the Activity in the experiment on Spodoptera exigua, with Zymoseptoria tritici and in the experiment with Pyricularia oryzae were 33%, 0% and 30%, respectively.

Regarding `Fc1ccc(C2=NOC(c3nnc(-c4ccccc4)o3)C2)cc1` (stereo not drawn), the Activity worked out at 17% in the experiment with Spodoptera exigua, 0% with Zymoseptoria tritici and 30% with Pyricularia oryzae.

Regarding `CC1(c2nnc(-c3cccc(Cl)c3)o2)CC(c2c(Cl)cccc2Cl)=NO1` (stereo not drawn), the values for the Activity with Spodoptera exigua, in the experiment with Zymoseptoria tritici and with Pyricularia oryzae were 50%, 0% and 50%, respectively.

For the compound `Clc1cccc(C2=NOC(c3nnc(-c4ccccc4)o3)C2)c1` (stereo not drawn), the Activity in the experiment on Spodoptera exigua was found to be 0%; in the experiment on Zymoseptoria tritici it was 0%; with Pyricularia oryzae, 30%.

With `CC1(c2nnc(-c3ccc(Cl)cc3)o2)CC(c2ccc(Cl)cc2)=NO1` (stereo not drawn), the Activity in the experiment on Spodoptera exigua was determined as 17%; with Zymoseptoria tritici, 0%; with Pyricularia oryzae, 50%.

Take `Clc1cccc(Cl)c1C1=NOC(c2nnc(-c3ccccc3)o2)C1` (stereo not drawn): the Activity is given as 17% in the experiment on Spodoptera exigua, 30% in the experiment on Zymoseptoria tritici and 40% in the experiment with Pyricularia oryzae.
